This note sets out measurements from EP2246337A1, “Use of isoxazole derivatives as cyclooxygenase inhibitors” (Universita' degli Studi di Bari, priority 2004, dated 2005).

Like-named read-outs stand apart in the source and are kept apart here. Marks after values point to notes of the source that are not given here.

For one assay, the target named is T1, platelet COX-1 (Homo sapiens, UniProt P23219).
T1 construct: 1 ml aliquots of isolated whole blood were immediately transferred into glass test tubes and kept at a temperature of 37°C; endogenous in cells; host or cells: platelets in human whole blood (healthy volunteers / study subjects)
T1 sequence (P23219 24-599): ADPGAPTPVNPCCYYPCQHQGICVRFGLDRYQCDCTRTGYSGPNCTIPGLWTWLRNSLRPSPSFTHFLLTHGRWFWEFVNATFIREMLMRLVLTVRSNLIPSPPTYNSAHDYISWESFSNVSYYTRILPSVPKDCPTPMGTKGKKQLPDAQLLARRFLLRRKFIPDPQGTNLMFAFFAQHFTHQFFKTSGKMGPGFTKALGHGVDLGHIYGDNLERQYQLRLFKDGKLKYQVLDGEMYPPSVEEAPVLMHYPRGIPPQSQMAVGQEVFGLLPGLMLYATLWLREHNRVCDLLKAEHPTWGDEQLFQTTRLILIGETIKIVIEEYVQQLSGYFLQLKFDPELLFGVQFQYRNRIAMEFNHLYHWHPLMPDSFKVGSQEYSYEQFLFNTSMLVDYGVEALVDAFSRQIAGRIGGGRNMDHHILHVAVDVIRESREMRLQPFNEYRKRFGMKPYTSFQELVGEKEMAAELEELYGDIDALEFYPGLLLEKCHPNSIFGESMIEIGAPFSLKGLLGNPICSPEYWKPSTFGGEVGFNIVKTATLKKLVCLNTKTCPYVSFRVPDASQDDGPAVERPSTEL
The assay is described as follows: COX-1 assay in isolated human whole blood allowed to clot (serum TXB2). The class given is cell-based. Conditions: for IC50: isolated human whole blood clotting 1 hour at 37°C, TXB2, means of at least two experiments.

A further assay addresses T2, monocyte COX-2 (Homo sapiens, UniProt P35354).
T2 construct: isolated peripheral venous blood samples containing 10 IU of sodium heparin were incubated in the laboratory in the presence of LPS; endogenous in cells; host or cells: monocytes in LPS-stimulated heparinised human whole blood
T2 sequence (P35354 18-604): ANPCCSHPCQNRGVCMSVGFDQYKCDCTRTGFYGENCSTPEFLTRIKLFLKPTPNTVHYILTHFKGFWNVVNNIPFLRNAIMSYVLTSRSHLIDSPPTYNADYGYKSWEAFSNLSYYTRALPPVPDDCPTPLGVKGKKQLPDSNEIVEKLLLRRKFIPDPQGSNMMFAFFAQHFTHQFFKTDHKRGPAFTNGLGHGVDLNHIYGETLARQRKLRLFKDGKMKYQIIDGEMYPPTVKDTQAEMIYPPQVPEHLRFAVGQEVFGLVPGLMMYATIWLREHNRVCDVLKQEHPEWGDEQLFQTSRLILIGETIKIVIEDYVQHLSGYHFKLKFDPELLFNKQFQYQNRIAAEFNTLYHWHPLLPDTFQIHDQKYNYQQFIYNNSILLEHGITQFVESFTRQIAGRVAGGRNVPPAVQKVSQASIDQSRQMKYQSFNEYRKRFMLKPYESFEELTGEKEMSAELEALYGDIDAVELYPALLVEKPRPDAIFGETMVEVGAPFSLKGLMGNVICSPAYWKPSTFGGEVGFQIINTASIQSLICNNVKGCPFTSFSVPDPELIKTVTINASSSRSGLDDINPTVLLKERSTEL
The experiment in a line: COX-2 assay in LPS-stimulated isolated human whole blood (plasma PGE2). The class given is cell-based. The note with it: for IC50: heparinised isolated human whole blood, LPS 10 micrograms/ml, 24 hours, PGE2, means of at least two experiments.

The target in a further assay is T3, COX-1 platelet activity (Homo sapiens, UniProt P23219).
T3 construct: 1 ml aliquots of isolated whole blood were immediately transferred into glass test tubes and kept at a temperature of 37°C; endogenous in cells; host or cells: platelets in human whole blood (healthy volunteers / study subjects)
T3 sequence (P23219 24-599): as the sequence (P23219 24-599) above
The assay is described as follows: Ex vivo platelet COX-1 activity (serum TXB2) in subjects treated with rofecoxib. The note with it: median (range); for Serum Thromboxane B2: rofecoxib 25 mg per day for 5 consecutive days; for COX-1 platelet activity, % of variation vs pretreatment values: 25 mg per day for 5 consecutive days.

For assay [1], the system named is biosynthesis of Thromboxane A2. The assay is described as follows: Urinary excretion of 11-dehydro-thromboxane B2 (index of systemic thromboxane A2 biosynthesis in vivo) after rofecoxib. Also noted: species or system human. Conditions: median (range); for 11-dehydro-thromboxane B2: rofecoxib 25 mg per day for 5 consecutive days, overnight urine; for urinary excretion of 11-dehydro-TXB2, % of pre-drug values: 25 mg per day for 5 days. The source says:
(§1) The collection of overnight urine samples was obtained to assess the urinary excretion of 11-dehydro-thromboxane B2 and of 2,3-dinor-6-keto-PGF1α before treatment with the drug and after the last dose of rofecoxib.
(§2) Biochim Biophys Acta 1987;918:293-7. […] J Pharmacol Exp Ther 1995;275:94-100).

Assay [2] concerns biosynthesis of prostacyclin. The experiment in a line: Urinary excretion of 2,3-dinor-6-keto-PGF1α (index of systemic prostacyclin biosynthesis in vivo) after rofecoxib. Also noted: species or system human. The note with it: for percent change from pretreatment at 25 mg: Homo sapiens, 120 h.
From the text: as §1, §2

Assay [3] deals with T4, COX-2 monocyte activity (Homo sapiens, UniProt P35354). The note with it: rofecoxib 25 mg per day for 5 consecutive days, median (range).
Method: (§3) Subjects with disturbances of a haemorrhagic nature, allergy to aspirin or to other non-steroidal anti-inflammatory drugs (NSAID) or with a history of gastrointestinal disorders were excluded from the study. The subjects refrained from using aspirin or other non-steroidal anti-inflammatory drugs (NSAID) for at least two weeks prior to the study. The blood samples were taken to determine COX-1 platelet activity and COX-2 monocyte activity before treatment with the drug and 12 hours after the last administration (at 8 a.m. on the sixth day of the study).
(§4) The effects of Rofecoxib on COX-1 platelet activity were assessed (assessing the production of serum TXB2 as described in Patrono et al., Thromb Res 1980;17:317-27) and on COX-2 monocyte activity (measuring the production of PGE2 in whole blood stimulated with LPS, as described in Patrignani et al., J Pharmacol Exp Ther 1994;271:1705-12).
The target in assay [4] is T4, COX-2 monocyte activity. The assay is described as follows: in vivo.
Method: as §3, §4

Method for COX-1 platelet activity: as §3, §4

One may read the IC50 as the concentration that inhibits the measured activity by half. Read a high IC50 as weaker potency. For the compound `Cc1onc(-c2ccccc2)c1-c1ccccc1` [2a (P10), 3,4-Diphenyl-5-methylisoxazole], at platelet COX-1, the “COX-1 inhibition (result in words)” value is given as “excellent COX-1 inhibitors” and the IC50 turned out to be 90 nM. The 50% inhibitory concentration (IC50) at monocyte COX-2 was determined as 2490 nM.

Turning to `Cc1onc(-c2ccc(Cl)o2)c1-c1ccccc1` [2c (P6), 3-(5-Chloro-2-furyl)-4-phenyl-5-methylisoxazole], at platelet COX-1, the “COX-1 inhibition (result in words)” value is “excellent COX-1 inhibitors” and the concentration for half-maximal inhibition (IC50) came to 500 nM. The “suppression of platelet COX-1 activity” value on platelet COX-1 (at concentrations that do not affect monocyte COX-2 activity, concentration-response curves) is above 90%. The “effect on monocyte COX-2 activity” value at monocyte COX-2 (at concentrations giving virtually complete suppression of platelet COX-1 activity) is recorded as “do not affect monocyte COX-2 activity”.

On to `CCc1onc(-c2ccccc2)c1-c1ccccc1` [2g (P9), 3,4-Diphenyl-5-ethylisoxazole], for which, at platelet COX-1, the “COX-1 inhibition (result in words)” value is on record as “excellent COX-1 inhibitors” and the IC50 turned out to be 50 nM. Moreover, the half-inhibitory concentration (IC50) against monocyte COX-2 worked out at 1490 nM.

As usually defined, the inhibition is the drop in the measured response relative to a control, in per cent. On to `CS(=O)(=O)c1ccc(C2=C(c3ccccc3)C(=O)OC2)cc1` [Rofecoxib], for which the “Serum Thromboxane B2” value on COX-1 platelet activity ("Wild-type" TLR4 subjects) was 233.5 (178-391) ng/ml; on COX-1 platelet activity (Carriers of TLR4 Polymorphisms), 225 (94-728) ng/ml. Further, the “COX-1 platelet activity, % of variation vs pretreatment values” on COX-1 platelet activity (carriers of TLR4 polymorphism) is on record as -11(from 0 to -57) %; on COX-1 platelet activity (non carriers of TLR4 polymorphism), -10(from 0 to -10) %. In addition, the “11-dehydro-thromboxane B2” value in assay [1] ("Wild-type" TLR4 subjects) is on record as 345 (155-595.6) pg/mg creatinine; in assay [1] (Carriers of TLR4 Polymorphisms), 329 (158-587)^* pg/mg creatinine. Also, the “urinary excretion of 11-dehydro-TXB2, % of pre-drug values” in assay [1] ("wild-type" subjects) is recorded as 71 (67-84) %; in assay [1] (carriers of TLR4 polymorphisms), 174 (136-354) %. Further, the “2,3 dinor-6 keto-prostaglandin F1α” value in assay [2] ("Wild-type" TLR4 subjects, rofecoxib 25 mg per day for 5 consecutive days, overnight urine, median (range)) was 56.5(38-84)^* pg/mg creatinine. Also, in assay [2] (Carriers of TLR4 Polymorphisms, rofecoxib 25 mg per day for 5 consecutive days, overnight urine, median (range)), the “2,3 dinor-6-keto-prostaglandin F1α” value is recorded as 50 (28-93)^* pg/mg creatinine. For the same compound, the percent change from pretreatment at 25 mg was -61% in assay [2] (read-out: inhibition of the urinary excretion of 2,3-dinor-6-keto PGF1α, "wild-type" subjects (second value of 'respectively'), 25 mg per day for 5 days, median (range)) and -64% in assay [2] (read-out: inhibition of the urinary excretion of 2,3-dinor-6-keto PGF1α, carriers of TLR4 polymorphisms (first value of 'respectively'), 25 mg per day for 5 days, median (range)). Besides, in assay [2] (similar in the two groups of patients (carriers of TLR4 polymorphisms and wild-type)), the inhibition of prostacyclin result is listed as “about 60%”. Also, the entries for the “Prostaglandin E2 induced by lipopolysaccharide” value on COX-2 monocyte activity [3] ("Wild-type" TLR4 subjects) and at COX-2 monocyte activity [3] (Carriers of TLR4 Polymorphisms) were 2.3 (0.3-4.2) ^** ng/ml and 5.3 (1.9-11)^** ng/ml, respectively. For the same compound, the inhibition at 25 mg at COX-2 monocyte activity [4] (read-out: monocyte COX-2 activity ex vivo, % inhibition, carriers of TLR4 polymorphism, 25 mg per day for 5 consecutive days, median (range)) was -94%; on COX-2 monocyte activity [4] (read-out: monocyte COX-2 activity ex vivo, % inhibition, non carriers of TLR4 polymorphism, 25 mg per day for 5 consecutive days, median (range)), -85%.
